Measured values: patent US20260191807A1, “COMPOSITIONS AND METHODS FOR TREATMENT OF PRADER-WILLI SYNDROME” (ERX Pharmaceuticals Inc., priority 2022, published 2026)
Read-outs that look alike come from different tables or passages of the source.

How the values were obtained:
[1] = test system: C57BL/6 DIO mice; assay: Daily food intake of C57BL/6 DIO mice; assay type: in vivo; settings: for Food intake (food weights in g/day): Belaronib 0.3 mg/kg SC, Celastrol 0.2 mg/kg IP daily, mean
Protocol: (§1) C57BL/6 mice were treated with test compound (Celastrol) or controls as shown in the table below from Day 1 to Day 15. […] One mouse was excluded from the study because it appeared resistant to nestlet shredding prior to treatment.
(§2) Male C57BL/6 DIO mice were obtained from Jackson Labs (Bar Harbor, ME). The mice arrived at ages 17 weeks and mice were housed 3 per cage on arrival. Prior to dosing in the study, the mice were singly housed.
(§3) All treatment volumes were 10 mL/kg. Utilizing the art-recognized nestlet shredding mouse model, […]. Celastrol and the vehicle control were administered intraperitoneally using a 30G needle. Beloranib was administered subcutaneously using a 30G needle. All treatments were administered daily in the afternoon at 17:00 h, 1 hour before dark cycle from Day 1 to end of dosing.
(§4) Celastrol was dissolved in a pharmaceutically-acceptable excipient, e.g., 50% Solutol/50% DMAC, and this stock solution aliquoted and stored at −80° C. until treatment day. On the day of treatment, an aliquot of the stock solution was thawed and diluted […] with saline to obtain the desired dosing solution strength in 5% Solutol/5% dimethylacetamide/90% saline. The vehicle control was 5% Solutol/5% dimethylacetamide/90% saline. Beloranib was dissolved in 100% DMSO, and this stock solution was aliquoted and stored at −80° C. until treatment day. On the day of treatment, an aliquot of the stock solution was thawed and diluted 1:10 with deionized (DI) water to obtain the desired dosing solution strength in 10% DMSO.
Daily food intake was calculated based on remaining food weight compared to food weight on the previous day using an Ohaus model CS 200 balance.

[2] = test system: C57BL/6 DIO mice; assay: Body weights of C57BL/6 DIO mice during daily treatment; assay type: in vivo; settings: Celastrol 0.2 mg/kg IP daily; for Body weights (expressed as a percentage of day-1 weight) / Body weights (in grams): Belaronib 0.3 mg/kg SC, mean
[3] = test system: Participants with PWS; settings: cited from earlier work; for weight change, mean difference: p<0.0001
[4] = test system: C57BL/6 DIO mice; assay: Nestlet shredding test in C57BL/6 DIO mice; assay type: in vivo; settings: Belaronib 0.3 mg/kg SC, Celastrol 0.2 mg/kg IP daily, mean
Protocol: as §1, §2, §3, §4
The nestlet shredding test is an art-recognized animal model for human repetitive, anxiety, and/or compulsive behaviors. In the nestlet shredding test, a nestlet comprised of pulped fiber, e.g., cotton fiber, is preweighed and placed on top of cage bedding and the amount of the nestlet remaining intact after a test session of pre-determined time is evaluated.
Nestlet shredding was determined on day 1, day 6, day 11 and day 15 by placing a fresh nestlet prior to the dark cycle and measuring the weight of the remaining nestlet at 12 and 24 hours on an Ohaus model CS 200 balance. Percent shredding was calculated based on the initial nestlet weight.

CO[C@@H]1[C@H](OC(=O)/C=C/c2ccc(OCCN(C)C)cc2)CC[C@]2(CO2)[C@H]1[C@@]1(C)O[C@@H]1CC=C(C)C [Belaronib, Beloranib, reference compound]
cumulative food intake, average total for the study ([1]; 15-day study, Beloranib 0.3 mg/kg SC, celastrol 0.2 mg/kg IP daily, vehicle 32.6 g): 28.1 g/mouse
effect on food intake (in words) ([1]; Celastrol compared with positive control Beloranib): rebounded
Food intake (food weights in g/day) ([1]; Day 1): 3.1 g/day
Food intake (food weights in g/day) ([1]; Day 2): 1.5 g/day
Food intake (food weights in g/day) ([1]; Day 3): 2.3 g/day
Food intake (food weights in g/day) ([1]; Day 4): 1.9 g/day
Food intake (food weights in g/day) ([1]; Day 5): 1.4 g/day
Food intake (food weights in g/day) ([1]; Day 6): 1.2 g/day
Food intake (food weights in g/day) ([1]; Day 7): 1.1 g/day
Food intake (food weights in g/day) ([1]; Day 8): 1.5 g/day
Food intake (food weights in g/day) ([1]; Day 9): 1.1 g/day
Food intake (food weights in g/day) ([1]; Day 10): 1.9 g/day
Food intake (food weights in g/day) ([1]; Day 11): 2.2 g/day
Food intake (food weights in g/day) ([1]; Day 12): 2.6 g/day
Food intake (food weights in g/day) ([1]; Day 13): 2.2 g/day
Food intake (food weights in g/day) ([1]; Day 14): 2.2 g/day
Food intake (food weights in g/day) ([1]; Day 15): 2.1 g/day
food intake after rebound, similar to vehicle ([1]; day 10-11, 0.3 mg/kg SC daily): 2.2 g/day/mouse
food intake, nadir ([1]; reduction initiated on day 2-3, 0.3 mg/kg SC daily): 1.1 g/day/mouse
Body weights (expressed as a percentage of day-1 weight) ([2]; Day 1): 100.0%
Body weights (in grams) ([2]; Day 1): 46.4 grams
Body weights (expressed as a percentage of day-1 weight) ([2]; Day 2): 98.0%
Body weights (in grams) ([2]; Day 2): 45.5 grams
Body weights (expressed as a percentage of day-1 weight) ([2]; Day 3): 96.1%
Body weights (in grams) ([2]; Day 3): 44.6 grams
Body weights (expressed as a percentage of day-1 weight) ([2]; Day 4): 94.0%
Body weights (in grams) ([2]; Day 4): 43.6 grams
Body weights (expressed as a percentage of day-1 weight) ([2]; Day 5): 91.0%
Body weights (in grams) ([2]; Day 5): 42.2 grams
Body weights (expressed as a percentage of day-1 weight) ([2]; Day 6): 87.7%
Body weights (in grams) ([2]; Day 6): 40.7 grams
Body weights (expressed as a percentage of day-1 weight) ([2]; Day 7): 85.2%
Body weights (in grams) ([2]; Day 7): 39.5 grams
Body weights (expressed as a percentage of day-1 weight) ([2]; Day 8): 83.1%
Body weights (in grams) ([2]; Day 8): 38.5 grams
Body weights (expressed as a percentage of day-1 weight) ([2]; Day 9): 80.6%
Body weights (in grams) ([2]; Day 9): 37.4 grams
Body weights (expressed as a percentage of day-1 weight) ([2]; Day 10): 79.2%
Body weights (in grams) ([2]; Day 10): 36.7 grams
Body weights (expressed as a percentage of day-1 weight) ([2]; Day 11): 77.9%
Body weights (in grams) ([2]; Day 11): 36.1 grams
Body weights (expressed as a percentage of day-1 weight) ([2]; Day 12): 77.1%
Body weights (in grams) ([2]; Day 12): 35.7 grams
Body weights (expressed as a percentage of day-1 weight) ([2]; Day 13): 76.2%
Body weights (in grams) ([2]; Day 13): 35.3 grams
Body weights (expressed as a percentage of day-1 weight) ([2]; Day 14): 75.2%
Body weights (in grams) ([2]; Day 14): 34.8 grams
Body weights (expressed as a percentage of day-1 weight) ([2]; Day 15): 74.4%
Body weights (in grams) ([2]; Day 15): 34.5 grams
body weight lost (percentage of day 1 body weight) ([2]; at day 15, Beloranib 0.3 mg/kg SC, vehicle-treated mice lost 15.5%): 25.6%
weight change, mean difference ([3]; 1.8 mg beloranib injection biweekly for 26 weeks, 95% CI −10.8 to −5.6): −8.2%
most frequent adverse event ([3]; 1.8 mg or 2.4 mg injection biweekly): Injection site bruising
weight change, mean difference ([3]; 2.4 mg beloranib injection biweekly for 26 weeks, 95% CI −12.1 to −6.8): −9.5%
venous thrombotic events in beloranib-treated participants ([3]; imbalance compared to placebo, dosing stopped early): two fatal events of pulmonary embolism and two events of deep vein thrombosis
Nestlet Shredding (percent of nestlet shredded) ([4]; Day 1, 12 hour): 95.5%
Nestlet Shredding (percent of nestlet shredded) ([4]; Day 6, 12 hour): 11.9%
Nestlet Shredding (percent of nestlet shredded) ([4]; Day 6, 24 hour): 15.7%
Nestlet Shredding (percent of nestlet shredded) ([4]; Day 11, 12 hour): 3.8%
Nestlet Shredding (percent of nestlet shredded) ([4]; Day 11, 24 hour): 5.2%
Nestlet Shredding (percent of nestlet shredded) ([4]; Day 15, 12 hour): 27.6%
Nestlet Shredding (percent of nestlet shredded) ([4]; Day 15, 24 hour): 32.9%
